Assays:
[1] = Metabolic stability in pooled human liver microsomes; type: in vitro ADME; details: 1 μM
Procedure, shortened: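 Test compounds at 1 µM incubated in triplicate with pooled human liver microsomes (0.5 mg/mL) and ~1 mM NADPH at 37 °C, stopped after 60 min. Parent loss classed very slow (<5%) to very fast (>80%); metabolism rated high, moderate or low by t1/2 cut-offs of 30 and 60 min.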

CYP2C9 = target: T1, CYP2C9 (Homo sapiens, UniProt P11712); test: Isozyme-specific CYP450 inhibition, CYP2C9; type: in vitro ADME; details: 1 μM, 60 min, recombinant human CYP450 (Baculosomes)
T1 construct: purchased Thermo Fisher Scientific; host or cells: Baculosomes
Procedure: Human cytochrome P450 (CYP450) isoenzymes were expressed in Baculosomes®, purchased from Thermo Fisher Scientific (Waltham, MA, USA). All reagents were handled and prepared according to the manufacturer's protocol. Test compounds were assessed at 1 μM for their effects on CYP1A2, CYP2A6, CYP2C9, CYP2C19, CYP2D6, and CYP3A4. Approximately 1 μM was selected based on our ADMET standard operating procedures and protocols also published previously (Rogdakis et al., [2022]; Yilmaz et al., [2022]). CYP450-enzymatic activity was determined based on the kinetic model for each CYP450 isoform (Cohen et al., [2003]; Veith et al., [2009]). Reactions took place in triplicates at 20°C. For this, NADP^+ (10 mM in 100 mM potassium phosphate, pH 8.0) was converted into NADPH by the regeneration system present (glucose-6-phosphate at 333 mM and glucose-6-phosphate-dehydrogenase at 30 U/mL in 100 mM potassium phosphate, pH 8.0). Following the addition of the fluorescent substrate, signal monitoring over time took place immediately (<2 min) at suitable excitation and emission wavelengths (Agilent BioTek Lionheart FX). CYP450 inhibition (%) was determined based on the reaction rates (fluorescence intensity changes per unit time). In total, n = 60 measurements […] were acquired (t = 60 min).
% Inhibition=(1-X/A)×100%
X is the rate observed in the presence of the test compound.
A is the rate observed in the presence of the negative (solvent, DMSO) control.

[2] = test system: NIH-3T3 TrkB-expressing cell line; test: CellTox Green cytotoxicity assay in NIH-3T3 cells stable transfected with TrkB under serum deprivation; type: cell-based; details: compound 1 μM, 24 h, after 24 h serum starvation; BDNF 500 ng/mL as control
Procedure, shortened: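 TrkB-transfected NIH-3T3 cells were serum-starved for 24 h, then exposed 24 h to compounds at 1 μM or BDNF 500 ng/mL as control. Dead cells stained with CellTox Green and total cells with Hoechst 33342, imaged by microscopy. CellTox-positive counts normalised to total cells per image.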

T1 sequence (P11712 whole entry): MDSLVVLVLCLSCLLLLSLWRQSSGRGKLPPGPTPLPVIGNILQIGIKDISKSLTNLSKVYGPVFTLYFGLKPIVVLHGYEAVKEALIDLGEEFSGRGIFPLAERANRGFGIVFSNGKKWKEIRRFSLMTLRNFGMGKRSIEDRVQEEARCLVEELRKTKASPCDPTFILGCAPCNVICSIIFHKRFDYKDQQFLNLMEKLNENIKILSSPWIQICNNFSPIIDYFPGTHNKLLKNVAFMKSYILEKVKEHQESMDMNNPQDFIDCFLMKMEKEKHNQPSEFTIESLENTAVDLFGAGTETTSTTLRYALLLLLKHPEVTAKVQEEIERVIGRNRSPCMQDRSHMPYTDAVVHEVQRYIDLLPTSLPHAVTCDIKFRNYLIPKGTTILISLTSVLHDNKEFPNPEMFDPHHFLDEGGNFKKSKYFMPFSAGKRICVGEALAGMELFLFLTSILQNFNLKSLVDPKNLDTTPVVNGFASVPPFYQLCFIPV

SMILES: C[C@]12CC[C@H](O)CC1=CC[C@@H]1[C@@H]2CC[C@@]2(C)[C@H]1CC[C@@]21CC=C(Cn2cc(Cc3ccccc3)nn2)CO1 [ENT-A055, (3S,17R)-5′-[(4-benzyl-1H-1,2,3-triazol-1-yl)methyl]-3′,6′-dihydrospiro[5-androstene-17,2′-pyran]-3-ol]
- residual of time zero ([1]; pooled human liver microsomes 0.5 mg/mL, t = 60 min, NADPH): > 95%
- parent structure loss (depletion) class ([1]; pooled human liver microsomes, 60 min): very slow (very slow (<5%))
- inhibition for CYP2C9 (CYP2C9): moderate-to-strong inhibition
- protection of NIH-3T3-TrkB cells from serum deprivation-induced cell death (CellTox) [2]: significantly reduce cell death levels compared to the serum-free control, comparable to the BDNF action
